Reference: ChEMBL document CHEMBL5108047 (J Med Chem, 2022)

How the values were obtained:
DNA polymerase theta [1] = molecular target: T1, DNA polymerase theta (Homo sapiens, UniProt O75417); test: Inhibition of human DNA polymerase theta pol domain (1819 to 2590 residues) expressed in Escherichia coli BL21 (DE3) cells preincubated for 15 mins followed by DNA and dNTP addition and measured after 120 mins by Picogreen dye fluorescence intensity analysis
[2] = mouse, microsomes
Description: Metabolic stability in mouse liver microsomes assessed as clearance

[3] = AUC in CD-1 mouse at 20 mg/kg, po measured upto 24 hrs by reverse phase LCMS analysis; format: ADME, organism-based; set-up: time < 24 hrs, dose 20 mg/kg, route po; settings: in vivo
[4] = Plasma protein binding in mouse assessed as unbound fraction by equilibrium dailysis; format: ADME, cell-free
[5] = fCaverage in CD-1 mouse; format: ADME
DNA polymerase theta [6] = molecular target: T1, DNA polymerase theta; test: Inhibition of human DNA polymerase theta using 5'-CACTGACTGTATGATG as primer and DNA 16/19 as substrate by FRET assay
DNA polymerase theta [7] = molecular target: T1, DNA polymerase theta; test: Inhibition of human DNA polymerase theta using DNA 16/19 as substrate at 5 nM of enzyme concentration
DNA polymerase theta [8] = molecular target: T1, DNA polymerase theta; test: Inhibition of human DNA polymerase theta using DNA 16/19 as substrate at 2 nM of enzyme concentration
DNA polymerase theta [9] = molecular target: T1, DNA polymerase theta; test: Inhibition of human DNA polymerase theta using DNA 16/19 as substrate at 1 nM of enzyme concentration
DNA polymerase theta [10] = molecular target: T1, DNA polymerase theta; test: Inhibition of human DNA polymerase theta using DNA 16/19 as substrate at 0.5 nM of enzyme concentration

T1 sequence (O75417 whole entry, the tested form may be a part): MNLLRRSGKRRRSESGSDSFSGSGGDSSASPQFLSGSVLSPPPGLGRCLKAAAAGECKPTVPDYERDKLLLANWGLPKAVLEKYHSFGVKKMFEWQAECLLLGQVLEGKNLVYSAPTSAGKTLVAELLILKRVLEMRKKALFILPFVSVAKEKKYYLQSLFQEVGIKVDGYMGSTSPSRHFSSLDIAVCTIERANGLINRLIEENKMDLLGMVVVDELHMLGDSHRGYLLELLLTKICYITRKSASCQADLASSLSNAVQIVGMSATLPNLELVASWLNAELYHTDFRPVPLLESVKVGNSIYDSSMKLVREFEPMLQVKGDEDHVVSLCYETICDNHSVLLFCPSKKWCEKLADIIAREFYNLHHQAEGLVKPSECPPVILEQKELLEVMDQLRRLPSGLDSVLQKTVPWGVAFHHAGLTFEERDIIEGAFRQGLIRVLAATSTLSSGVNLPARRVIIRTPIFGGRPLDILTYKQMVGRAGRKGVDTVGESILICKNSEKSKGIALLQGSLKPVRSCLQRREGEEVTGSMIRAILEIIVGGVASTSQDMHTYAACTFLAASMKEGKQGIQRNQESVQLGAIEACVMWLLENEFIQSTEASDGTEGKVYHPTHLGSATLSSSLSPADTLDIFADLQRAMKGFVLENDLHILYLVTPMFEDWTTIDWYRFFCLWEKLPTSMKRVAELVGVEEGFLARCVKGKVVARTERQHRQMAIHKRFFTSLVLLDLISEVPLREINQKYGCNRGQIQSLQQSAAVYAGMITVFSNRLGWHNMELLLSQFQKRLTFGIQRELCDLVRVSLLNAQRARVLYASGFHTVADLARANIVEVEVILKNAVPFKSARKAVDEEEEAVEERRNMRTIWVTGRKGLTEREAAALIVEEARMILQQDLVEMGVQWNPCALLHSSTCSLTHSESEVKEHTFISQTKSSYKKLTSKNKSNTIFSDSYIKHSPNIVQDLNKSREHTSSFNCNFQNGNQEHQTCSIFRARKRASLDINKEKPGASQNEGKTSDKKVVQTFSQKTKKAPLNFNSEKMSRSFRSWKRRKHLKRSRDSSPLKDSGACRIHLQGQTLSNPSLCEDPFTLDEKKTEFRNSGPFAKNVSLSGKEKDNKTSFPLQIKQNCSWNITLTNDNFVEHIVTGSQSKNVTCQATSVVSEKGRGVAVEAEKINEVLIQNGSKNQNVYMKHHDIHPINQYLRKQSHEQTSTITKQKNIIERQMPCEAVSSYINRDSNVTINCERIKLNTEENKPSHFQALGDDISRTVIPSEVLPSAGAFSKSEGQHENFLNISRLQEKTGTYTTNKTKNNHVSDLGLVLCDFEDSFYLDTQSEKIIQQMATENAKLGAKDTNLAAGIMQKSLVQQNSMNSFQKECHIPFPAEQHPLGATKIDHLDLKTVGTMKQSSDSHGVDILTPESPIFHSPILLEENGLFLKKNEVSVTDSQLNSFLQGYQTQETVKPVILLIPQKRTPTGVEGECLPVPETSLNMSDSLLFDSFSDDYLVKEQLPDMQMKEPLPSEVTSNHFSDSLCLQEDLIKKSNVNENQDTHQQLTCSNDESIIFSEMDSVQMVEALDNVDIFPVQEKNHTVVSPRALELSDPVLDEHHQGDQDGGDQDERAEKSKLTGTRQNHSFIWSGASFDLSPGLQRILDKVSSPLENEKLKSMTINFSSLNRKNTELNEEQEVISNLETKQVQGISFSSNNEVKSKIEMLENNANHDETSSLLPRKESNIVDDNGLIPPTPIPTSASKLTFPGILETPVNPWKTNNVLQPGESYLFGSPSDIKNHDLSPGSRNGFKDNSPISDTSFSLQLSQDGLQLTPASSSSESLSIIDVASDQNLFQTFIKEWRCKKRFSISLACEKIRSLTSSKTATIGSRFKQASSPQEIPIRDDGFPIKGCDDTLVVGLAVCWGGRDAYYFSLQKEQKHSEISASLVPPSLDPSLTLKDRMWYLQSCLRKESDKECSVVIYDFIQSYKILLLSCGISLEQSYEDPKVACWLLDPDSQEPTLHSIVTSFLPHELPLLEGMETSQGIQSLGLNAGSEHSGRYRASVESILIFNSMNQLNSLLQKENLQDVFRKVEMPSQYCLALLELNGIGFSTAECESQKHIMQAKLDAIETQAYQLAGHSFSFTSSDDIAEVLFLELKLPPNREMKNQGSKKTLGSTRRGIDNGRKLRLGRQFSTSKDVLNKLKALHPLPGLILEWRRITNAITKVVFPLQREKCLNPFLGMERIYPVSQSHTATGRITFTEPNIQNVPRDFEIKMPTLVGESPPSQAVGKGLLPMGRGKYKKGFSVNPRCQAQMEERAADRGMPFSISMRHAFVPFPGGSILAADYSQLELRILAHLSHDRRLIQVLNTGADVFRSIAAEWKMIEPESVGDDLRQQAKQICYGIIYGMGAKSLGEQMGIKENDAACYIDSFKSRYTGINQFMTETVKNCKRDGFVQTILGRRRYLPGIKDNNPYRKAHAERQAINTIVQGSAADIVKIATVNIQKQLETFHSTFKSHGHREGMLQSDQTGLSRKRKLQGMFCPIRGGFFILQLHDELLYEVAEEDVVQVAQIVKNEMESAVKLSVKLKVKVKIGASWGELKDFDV

| Compound | IC50 (DNA polymerase theta [1]) | CLH [2] | also measured |
| --- | --- | --- | --- |
| Cc1nnc(C(=O)NCC#CCN(C(=O)Cc2ccc(C(F)(F)F)cc2C(F)(F)F)c2ccccc2)o1 | 0.068 nM | 614 µL/min/mg | – |
| CN(C(=S)Cn1nc2c(c1C(F)(F)F)CCC2)c1ccccc1 | 17 nM | > 555 µL/min/mg | IC50 (DNA polymerase theta [6]): 10 nM; IC50 (DNA polymerase theta [7]): 11.1 nM; IC50 (DNA polymerase theta [8]): 8.71 nM; IC50 (DNA polymerase theta [9]): 7.49 nM; IC50 (DNA polymerase theta [10]): 8.48 nM |
| CN(C(=O)Cc1ccc(C(F)(F)F)cc1C(F)(F)F)c1ccncc1 | 2200 nM | 56 µL/min/mg | – |
| O=C(NCC#CCN(C(=O)Cc1ccc(C(F)(F)F)cc1C(F)(F)F)c1ccccc1)c1cccnc1 | 0.2 nM | 492 µL/min/mg | – |
| CC1CCc2nn(CC(=O)N(C)c3ccccc3)c(C(F)(F)F)c21 (configuration not stated) | 240 nM | > 555 µL/min/mg | – |
| CC1Cc2nn(CC(=O)N(C)c3ccccc3)c(C(F)(F)F)c2C1 (configuration not stated) | 950 nM | > 832 µL/min/mg | – |
| CN(C(=O)Cn1nc2c(c1C(F)(F)F)CCC2)c1ccccc1 | 710 nM | > 555 µL/min/mg | – |
| CN(C(=O)Cn1nc2c(c1C(F)(F)F)CCCC2)c1ccccc1 | – | > 555 µL/min/mg | – |
| O=C(NCC#CCN(C(=O)Cc1ccc(C(F)(F)F)cc1C(F)(F)F)c1ccccc1)c1ccccn1 | 0.4 nM | 469 µL/min/mg | – |
| CN(C(=O)Cn1nc2c(c1C(F)(F)F)CCC2(C)C)c1ccccc1 | 2300 nM | > 832 µL/min/mg | – |
| CC(=O)NCC#CCN(C(=O)Cc1ccc(C(F)(F)F)cc1C(F)(F)F)c1ccccc1 | 0.82 nM | > 832 µL/min/mg | – |
| CN(C(=O)Cc1ccc(C(F)(F)F)cc1C(F)(F)F)c1ccccn1 | 2700 nM | > 832 µL/min/mg | – |
| CN(C(=O)Cc1ccc(C(F)(F)F)cc1C(F)(F)F)c1cccnc1 | 3200 nM | 216 µL/min/mg | – |
| CN(C(=O)Cn1c(C(F)(F)F)cc(C(F)(F)F)cc1=O)c1ccccc1 | 58 nM | – | – |
| CN(C(=O)Cn1nc2c(c1C(F)(F)F)CS(=O)(=O)C2)c1ccccc1 | 43000 nM | 23 µL/min/mg | – |
| CN(C(=O)Cc1ccc(C2CC2)cc1C(F)(F)F)c1ccccc1 | 40 nM | – | – |
| CN(C(=O)Cn1nc2c(c1C(F)(F)F)CNCC2)c1ccccc1 | > 100000 nM | 16 µL/min/mg | – |
| Cc1c2c(nn1CC(=O)N(C)c1ccccc1)CCC2 | 10000 nM | 473 µL/min/mg | – |
| CN(C(=O)Cc1ccccc1C(F)(F)F)c1ccccc1 | 9200 nM | – | – |
| CN(C(=O)Cn1nc2c(c1C(F)(F)F)C(C)(C)CC2)c1ccccc1 | 520 nM | > 555 µL/min/mg | – |
| CN(C(=O)Cn1nc(C(F)(F)F)c2c1CCCC2)c1ccccc1 | 11000 nM | – | – |
| CN(C(=O)Cc1ccc(Cl)cc1C(F)(F)F)c1ccccc1 | 121 nM | – | – |
| CN(C(=O)Cn1nc2c(c1C(F)(F)F)C(=O)NCC2)c1ccccc1 | > 100000 nM | 18 µL/min/mg | – |
| CN(C(=O)Cn1nc2c(c1C(F)(F)F)CC(C)(C)C2)c1ccccc1 | 560 nM | > 555 µL/min/mg | – |
| CN(C(=O)Cn1nc2c(c1C(F)(F)F)C(O)CC2)c1ccccc1 (configuration not stated) | > 100000 nM | 46 µL/min/mg | – |

The next lines start with results.

| IC50 (DNA polymerase theta [1]) | CLH [2] | Compound | also measured |
| --- | --- | --- | --- |
| 19 nM | 52 µL/min/mg | [2H]C([2H])([2H])N(C(=O)Cc1ccc(C(F)(F)F)cc1C(F)(F)F)c1ccc(F)cc1 | – |
| 1.7 nM | – | Cn1nc(N)cc1C#CCN(C(=O)Cc1ncc(C(F)(F)F)cc1C(F)(F)F)c1ccc(F)cc1 | AUC [3]: 35.6 µM·h; Fu [4]: 0.044; f(Cave) [5]: 65 nM |
| 0.99 nM | – | CC(C(N)=O)n1cc(C#CCN(C(=O)Cc2ncc(C(F)(F)F)cc2C(F)(F)F)c2ccc(F)cc2)cn1 (configuration not stated) | AUC [3]: 27 µM·h; Fu [4]: 0.044; f(Cave) [5]: 49 nM |
| 0.72 nM | – | O=C(Cc1ncc(C(F)(F)F)cc1C(F)(F)F)N(CC#Cc1ccc(C2CCNC2)cn1)c1ccc(F)cc1 (configuration not stated) | AUC [3]: 38 µM·h; Fu [4]: 0.019; f(Cave) [5]: 30 nM |
| 14 nM | 597 µL/min/mg | C#CCN(C(=O)Cc1ccc(C(F)(F)F)cc1C(F)(F)F)c1ccccc1 | – |
| 17 nM | 125 µL/min/mg | CN(C(=O)Cc1ccc(C(F)(F)F)cc1C(F)(F)F)c1ccc(F)cc1 | – |
| 0.91 nM | – | CS(=O)(=O)Cn1cc(C#CCN(C(=O)Cc2ncc(C(F)(F)F)cc2C(F)(F)F)c2ccc(F)cc2)cn1 | AUC [3]: 76.3 µM·h; Fu [4]: 0.019; f(Cave) [5]: 60 nM |
| 2.1 nM | – | COc1ncc(C#CCN(C(=O)Cc2ncc(C(F)(F)F)cc2C(F)(F)F)c2ccc(F)cc2)cn1 | AUC [3]: 7 µM·h; Fu [4]: 0.013; f(Cave) [5]: 3 nM |
| 1.6 nM | – | Nc1ncc(C#CCN(C(=O)Cc2ncc(C(F)(F)F)cc2C(F)(F)F)c2ccc(F)cc2)cn1 | AUC [3]: 24.7 µM·h; Fu [4]: 0.015; f(Cave) [5]: 81 nM |
| 4.2 nM | – | Nc1cnc(C#CCN(C(=O)Cc2ncc(C(F)(F)F)cc2C(F)(F)F)c2ccc(F)cc2)cn1 | AUC [3]: 108 µM·h; Fu [4]: 0.018; f(Cave) [5]: 81 nM |
| 2.5 nM | 110 µL/min/mg | O=C(Cc1ccc(C(F)(F)F)cc1C(F)(F)F)N(CC#Cc1cccnc1)c1ccccc1 | – |
| 4.9 nM | – | COc1ccc(C#CCN(C(=O)Cc2ncc(C(F)(F)F)cc2C(F)(F)F)c2ccc(F)cc2)nn1 | AUC [3]: 27.7 µM·h; f(Cave) [5]: 6 nM |
| 2.9 nM | 64 µL/min/mg | O=C(Cc1ccc(C(F)(F)F)cc1C(F)(F)F)N(CC#Cc1ccccn1)c1ccccc1 | – |
| 9 nM | – | Cn1cnc(C#CCN(C(=O)Cc2ncc(C(F)(F)F)cc2C(F)(F)F)c2ccc(F)cc2)c1 | AUC [3]: 5.31 µM·h; Fu [4]: 0.018; f(Cave) [5]: 3 nM |
| 65 nM | – | CN(C(=O)Cc1ncc(C(F)(F)F)cc1C(F)(F)F)c1ccccc1 | – |
| 1.2 nM | 57 µL/min/mg | Cn1cncc1C#CCN(C(=O)Cc1ccc(C(F)(F)F)cc1C(F)(F)F)c1ccccc1 | – |
| 0.75 nM | – | O=C(Cc1ncc(C(F)(F)F)cc1C(F)(F)F)N(CC#Cc1cnn(C2CNC2)c1)c1ccc(F)cc1 | AUC [3]: 14.1 µM·h; Fu [4]: 0.051; f(Cave) [5]: 29 nM |
| 42 nM | 115 µL/min/mg | N#CCN(C(=O)Cc1ccc(C(F)(F)F)cc1C(F)(F)F)c1ccccc1 | – |
| 0.51 nM | 39 µL/min/mg | O=C(Cc1ccc(C(F)(F)F)cc1C(F)(F)F)N(CC#Cc1cccc(=O)[nH]1)c1ccccc1 | – |
| 3.9 nM | 105 µL/min/mg | O=C(Cc1ccc(C(F)(F)F)cc1C(F)(F)F)N(CC#Cc1ncccn1)c1ccccc1 | – |
